In PubChem BioAssay AID328 (DTP/NCI, 2004):
“And” between values parts separate entries of the source, which are not always exact repeats. Identical values can stand only once. Toxic doses and inconclusive results are not listed.

Test system: BDF1 mice, P388 leukemia ip, median survival T/C
Test: NCI In Vivo Anticancer Drug Screen. Data for tumor model P388 Leukemia (intraperitoneal) in B6D2F1 (BDF1) mice
Conditions: endpoint: median survival time, higher = longer survival
Procedure, shortened: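 Transplantable tumour in mice; compound vs vehicle dosing; survival scored; ratio of treated to control reported.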

[1] = dose: 100.0 mg/kg/injection, schedule: Q04DX003 (ip), vehicle: Klucel (hydroxypropylcellulose) (HPC)
[2] = dose: 200.0 mg/kg/injection, schedule: Q04DX003 (ip), vehicle: Klucel (hydroxypropylcellulose) (HPC)
[3] = dose: 400.0 mg/kg/injection, schedule: Q04DX003 (ip), vehicle: Klucel (hydroxypropylcellulose) (HPC)
[4] = dose: 100.0 mg/kg/injection, schedule: Q01DX009 (ip), vehicle: saline with Tween-80
[5] = dose: 200.0 mg/kg/injection, schedule: Q01DX009 (ip), vehicle: saline with Tween-80
[6] = dose: 400.0 mg/kg/injection, schedule: Q01DX009 (ip), vehicle: saline with Tween-80

SMILES: Cc1ccc(S(=O)(=O)OC2CCCCCCCCCCC2=O)cc1 (stereo not drawn)
- T/C (dose: 25.0 mg/kg/injection, schedule: Q04DX003 (ip), vehicle: other): 99 % of control
- T/C (dose: 50.0 mg/kg/injection, schedule: Q04DX003 (ip), vehicle: other): 96 % of control
- T/C (dose: 100.0 mg/kg/injection, schedule: Q04DX003 (ip), vehicle: other): 95 % of control

SMILES: Cc1ncc(CO)c(C2NOCc3nscc32)c1O (stereo not drawn)
- T/C (dose: 7.0 mg/kg/injection, schedule: Q01DX009 (ip), vehicle: Klucel (hydroxypropylcellulose) (HPC)): 95 % of control
- T/C (dose: 11.25 mg/kg/injection, schedule: Q01DX001 (ip), vehicle: saline): 104 % of control
- T/C (dose: 14.0 mg/kg/injection, schedule: Q01DX009 (ip), vehicle: Klucel (hydroxypropylcellulose) (HPC)): 95 % of control
- T/C (dose: 19.0 mg/kg/injection, schedule: Q04DX003 (ip), vehicle: saline): 95 % of control
- T/C (dose: 22.5 mg/kg/injection, schedule: Q01DX001 (ip), vehicle: saline): 104 % of control
- T/C (dose: 45.0 mg/kg/injection, schedule: Q01DX001 (ip), vehicle: saline): 100 % of control
- T/C (dose: 45.0 mg/kg/injection, schedule: Q04DX003 (ip), vehicle: saline): 90 % of control

SMILES: NC(=S)N/N=C\c1[nH]c(=O)nc2ccccc12
- T/C [1]: 100 % of control
- T/C [2]: 100 % of control
- T/C [3]: 95 % of control

SMILES: CC(=O)OCC(=O)[C@@]1(O)CC[C@H]2[C@@H]3CCC4=CC(=O)CC[C@]4(C)[C@H]3[C@@H](O)C[C@@]21C
- T/C (dose: 90.0 mg/kg/injection, schedule: Q01DX010 (sc), vehicle: steriod suspending solution): 100 % of control
- T/C [4]: 100 % of control
- T/C (dose: 130.0 mg/kg/injection, schedule: Q01DX010 (sc), vehicle: steriod suspending solution): 88 % of control
- T/C [5]: 110 % of control
- T/C [6]: 90 % of control

SMILES: Cc1ccc(-n2c(=S)[nH]c3ccccc3c2=O)cc1C
- T/C (dose: 100.0 mg/kg/injection, schedule: Q01DX009 (ip), vehicle: Klucel (hydroxypropylcellulose) (HPC)): 100 % of control
- T/C [1]: 105 % of control
- T/C (dose: 200.0 mg/kg/injection, schedule: Q01DX009 (ip), vehicle: Klucel (hydroxypropylcellulose) (HPC)): 86 % of control
- T/C [2]: 100 % of control
- T/C (dose: 400.0 mg/kg/injection, schedule: Q01DX009 (ip), vehicle: Klucel (hydroxypropylcellulose) (HPC)): 91 % of control
- T/C [3]: 100 % of control

SMILES: O=C(O)C1CC(c2ccccc2)OC1=O (stereo not drawn)
- T/C (dose: 100.0 mg/kg/injection, schedule: Q01DX009 (ip), vehicle: gum acacia): 92 % of control
- T/C (dose: 100.0 mg/kg/injection, schedule: Q04DX003 (ip), vehicle: gum acacia): 100 % of control
- T/C (dose: 200.0 mg/kg/injection, schedule: Q01DX009 (ip), vehicle: gum acacia): 92 % of control
- T/C (dose: 200.0 mg/kg/injection, schedule: Q04DX003 (ip), vehicle: gum acacia): 104 % of control
- T/C (dose: 400.0 mg/kg/injection, schedule: Q04DX003 (ip), vehicle: gum acacia): 108 % of control

SMILES: CN1CCN(CCOC(=O)N2c3ccccc3Sc3ccccc32)CC1
- T/C (dose: 12.5 mg/kg/injection, schedule: Q01DX009 (ip), vehicle: Klucel (hydroxypropylcellulose) (HPC)): 100 % of control
- T/C (dose: 25.0 mg/kg/injection, schedule: Q01DX009 (ip), vehicle: Klucel (hydroxypropylcellulose) (HPC)): 105 % of control
- T/C (dose: 50.0 mg/kg/injection, schedule: Q01DX009 (ip), vehicle: Klucel (hydroxypropylcellulose) (HPC)): 100 % of control

SMILES: CC1(C)CC(=O)CC(C)(C)N1O
- T/C [1]: 100 % of control
- T/C [2]: 100 % of control
- T/C [3]: 104 % of control

SMILES: COC(=O)c1ccc(-c2ccccc2)cc1
- T/C (dose: 25.0 mg/kg/injection, schedule: Q04DX003 (ip), vehicle: Klucel (hydroxypropylcellulose) (HPC)): 98 % of control
- T/C (dose: 50.0 mg/kg/injection, schedule: Q04DX003 (ip), vehicle: Klucel (hydroxypropylcellulose) (HPC)): 95 % of control
- T/C [1]: 94 % of control
- T/C [2]: 101 % of control
- T/C [3]: 100 % of control

SMILES: C[C@H](CCC[C@H](C)OS(=O)(=O)c1ccccc1)OS(=O)(=O)c1ccccc1
- T/C (dose: 25.0 mg/kg/injection, schedule: Q01DX009 (ip), vehicle: saline with Tween-80): 117 % of control
- T/C (dose: 50.0 mg/kg/injection, schedule: Q01DX009 (ip), vehicle: saline with Tween-80): 99 % of control and 116 % of control
- T/C [4]: 155 % of control
- T/C [5]: 156 % of control and 180 % of control
- T/C [6]: 182 % of control

SMILES: CN1CCC(S)(S)CC1
- T/C (dose: 12.5 mg/kg/injection, schedule: Q04DX003 (ip), vehicle: saline with Tween-80): 100 % of control
- T/C (dose: 25.0 mg/kg/injection, schedule: Q04DX003 (ip), vehicle: saline with Tween-80): 100 % of control
- T/C (dose: 50.0 mg/kg/injection, schedule: Q04DX003 (ip), vehicle: saline with Tween-80): 109 % of control
